From patent publication US20020151588A1, “Dissociated glucocorticoid receptor antagonists for the treatment of glucocorticoid associated side effects” (priority 2000, published 2002)
Where “and” joins values, the source holds several entries; their conditions need not be identical. Identical values can stand only once.

Assays:
[1] = test system: PMA-induced neutrophils influx in mice ear; experiment: PMA-induced ear edema in mice (myeloperoxidase); assay type: in vivo; conditions: for Myeloperoxidase (treated-untreated ear) ± S.E.M.: 24 hours after PMA
Description: (§1) Female albino mice (Han:NMRI) obtained form Harlan and weighing about 20-25 g were used. The animals were provided with standardized pellet diet (Altromin 8013) and had tap water freely available. The animals were accommodated in a climate room with a 12-hour light/dark cycle and kept in groups.
(§2) All test compounds were administered orally (0.2 ml/10 g body weight (bw) ) in a dose of 100 mg/kg p.o. The compounds were “dissolved” in 0.2% hydroxypropylmethylcellulose and olive oil mixed 1:1 (v/v).
Mice were lightly anaesthetized by ether and 50 ng PMA (5 μl) were applied to each side of the left ear. […] The animals were sacrificed by ether 24 hours later, and a biopsy (diameter 8 mm) was punched out from both ears to assess an increase of neutrophils in the left ear compared with the right ear. Tissue samples were homogenized in 1 ml 0.5% HTAB (Hexadecyl-trimethyl-ammonium-bromide; Sigma H-5882; dissolved in 0.05 M phosphate buffer, pH 6.0) using a tissue homogenizer (IKA-Ultraturrax T5; Janke & Kunkel, Staufen/Breisgau) at 30000 RPM for 15 seconds under cooling. After centrifugation (16000 g, 5 min) the supernatants were frozen until processing for myeloperoxidase (MPO). Determination in the supernatants for MPO, a neutrophil marker enzyme, served as a quantitative index for the neutrophil accumulation. MPO was determined spectrophotometrically at 450 nm using a microplate version of the method of Bradley (1982) and microplate reader (Vmax; Molecular Devices, Palo Alto) suitable for kinetic measurements. The values are expressed as increase in milli optical densities per min (m O.D./min) (Table 1a and b).

[2] = test system: tyrosine aminotransferase (TAT) in mice liver; experiment: TAT induction in mice liver; assay type: in vivo; conditions: for TAT-induction ± S.E.M.: mice liver, 8 hours after administration
Description: as §1, §2
Eight hours after compounds were administered the animals were killed and a punch (diameter 8 mm) was taken from the liver and immediately frozen in liquid nitrogen. The weighed liver punches were thawed for 3 minutes and homogenized after the addition 1 ml of phosphate buffer (pH 7.6) using a tissue homogenizer as described above. After centrifugation the supernatants were frozen at −20° C. until processing. For processing the samples were thawed and protein was determined using a kit employing 96 well microtiterplates commercially available from Fa. Pierce (No 23225). The activity of tyrosineaminotransferase (TAT) was determined in the supernatant, which was diluted 1:100 in phosphate buffer. The reaction is started by the addition of tyrosine in pyrodoxal-5-phosphate and α ketoglutaric acid at pH 7.6 and incubated for 30 minutes at 37° C. The reaction is stopped by the addition of 10 M KOH and a further incubation of 30 minutes is allowed for the formation of p-hydroxy-benzylaldehyde, which can be measured at 492 nm using a microplate reader. The values (optical densities) are calculated with respect to the protein concentration (O.D./mg protein) (Table 1a and b).

recombinant human GR = recombinant human GR (Homo sapiens, UniProt P04150); experiment: GR Competitive Binding Assay; conditions: after correction for compound determined to be in solution by HPLC analysis; read-out: IC50, competition with [6,7-3H(N)]-dexamethasone for binding to GR
recombinant human GR, sequence (P04150 whole entry, other chains not shown): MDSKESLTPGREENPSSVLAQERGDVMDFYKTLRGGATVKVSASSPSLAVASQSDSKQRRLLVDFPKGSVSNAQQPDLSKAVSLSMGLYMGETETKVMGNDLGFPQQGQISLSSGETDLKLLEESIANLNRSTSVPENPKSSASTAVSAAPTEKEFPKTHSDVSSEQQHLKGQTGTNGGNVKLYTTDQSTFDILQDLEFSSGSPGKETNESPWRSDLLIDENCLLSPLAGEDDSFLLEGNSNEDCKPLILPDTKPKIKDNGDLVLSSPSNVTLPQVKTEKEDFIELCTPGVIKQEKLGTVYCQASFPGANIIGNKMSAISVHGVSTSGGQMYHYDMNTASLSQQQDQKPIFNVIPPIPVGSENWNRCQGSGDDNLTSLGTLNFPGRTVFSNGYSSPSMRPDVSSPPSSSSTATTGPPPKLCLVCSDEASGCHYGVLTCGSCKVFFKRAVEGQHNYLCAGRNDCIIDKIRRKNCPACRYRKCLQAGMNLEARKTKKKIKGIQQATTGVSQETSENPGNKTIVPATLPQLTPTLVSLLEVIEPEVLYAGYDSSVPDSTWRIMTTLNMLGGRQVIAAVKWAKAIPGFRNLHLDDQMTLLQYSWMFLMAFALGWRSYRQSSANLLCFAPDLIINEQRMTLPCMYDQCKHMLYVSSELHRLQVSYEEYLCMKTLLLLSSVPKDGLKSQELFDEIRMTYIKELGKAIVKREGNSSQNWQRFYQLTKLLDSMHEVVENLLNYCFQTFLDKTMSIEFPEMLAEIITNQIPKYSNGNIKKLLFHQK
Description: All procedures were performed at 4° C.
Test compounds were dissolved to 1 mM in neat DMSO and then further diluted to 10×assay concentration in assay buffer supplemented with 10% v/v DMSO.

[3] = test system: tyrosine aminotransferase (TAT) in rat hepatoma cells; experiment: Induction of tyrosine aminotransferase (TAT) in H4-II-E-C3 rat hepatoma cells; assay type: cell-based
Description: H4-II-E-C3 rat hepatoma cells were incubated overnight in 96 well plates (20,000 cells/200 μl/well) in EMEM medium containing 10% heat inactivated FBS (fetal bovine serum). […] Control cells were treated with 0.1% DMSO. After 18 hours, the cells were lysed in a buffer containing 0.1% Triton X-100 and the TAT activity was measured in a photometric assay using tyrosine and -keto g lutarate as substrates (FIG. 3a).
The steroidal not dissociated GR/PR antagonist RU486 was used as control (FIG. 3b).

[4] = test system: croton-oil induced ear edema, carrageenan-induced paw edema; systemic side-effects of glucocorticoids; experiment: In vivo co-administration with dexamethasone or prednisolone in inflammation models
[5] = test system: LPS-induced IL-8 secretion in U-937 cells; experiment: GR-mediated inhibition of LPS-induced IL-8 secretion in U-937 cells; assay type: cell-based, human; conditions: 1 μg/ml LPS
Description: U-937 cells were incubated for 4 days in RPM11640 medium containing 10% CCS (charcoal treated calf serum). […] Control cells were treated with 0.1% DMSO.
Eighteen hours later the IL-8 concentration in the cell supernatant was measured by ELISA, using the “OptEIA human IL-8 set” (Pharmingen, Cat.No. 2654KI) (FIG. 5a).
The steroidal not dissociated GR/PR antagonist RU486 was used as control (FIG. 5b).

[6] = test system: ICAM-promoter in HeLa cells; experiment: Inhibition of TNF-α induced activation of the ICAM-promoter (luciferase) in HeLa cells; assay type: cell-based, human; conditions: 20 ng/ml TNF-α
Description: HeLa cells were stably co-transfected with a construct containing a 1.3 kb fragment of the human ICAM-promoter (−1353 to −9 relative to the transcription start site, cloned in front of the luciferase gene and the pcDNA3.1 plasmid (Invitrogen) which constitutively express the resistance for the antibioticum geneticin. Clones with best induction of the ICAM-promoter were selected and used for further experiments. Cells were transferred to 96 well plates (20,000 cells/100 μl/well) in DMEM medium supplemented with 3% CCS. On the following day the activation of the ICAM-promoter was induced by addition of 20 ng/ml recombinant TNF-α (R&D System, Cat. No. 210-TA). […] Control cells were treated with DMSO only. Twenty four hours later the cells were lysed with cell lysis reagent (Promega, Cat. No. E1531), luciferase assay reagent (Promega, Cat. No. E1501) was added and flash luminescence was measured using a BMG luminometer (FIG. 6a).
The steroidal not dissociated GR/PR antagonist RU486 was used as control (FIG. 6b).

[7] = test system: MMTV-(mouse mammary tumor virus) promoter in HeLa cells; experiment: Stimulation of MMTV promoter (luciferase) in HeLa cells; assay type: cell-based
Description: HeLa cells stably co-transfected with the pHHLuc-construct containing a fragment of the MMTV-LTR (−200 to +100 relative to the transcription start site) cloned in front of the luciferase gene and the pcDNA3.1 plasmid (Invitrogen) constitutively expressing the resistance for the antibioticum geneticin. Clones with best induction of the MMTV-promoter were selected and used for further experiments.
Cells were cultured overnight in DMEM medium w/o phenol red supplemented with 3% CCS (charcoal treated calf serum) and then transferred to 96 well plates (20,000 cells/100 μl/well). […] Control cells were treated with DMSO only. Twenty four hours later the cells were lysed with cell lysis reagent (Promega, Cat. No. E1531), luciferase assay reagent (Promega, Cat. No. E1501) was added and the flash luminescence was measured using a BMG luminometer (FIG. 4a).
The steroidal non-selective GR/PR antagonist RU486 was used as control (FIG. 4b).

[8] = co-administered with prednisolone, each 100 mg/kg p.o.

Structure (SMILES) | Myeloperoxidase (treated-untreated ear) ± S.E.M. [1, 8] [mO.D./min] | Myeloperoxidase (treated-untreated ear) ± S.E.M. ([1]; compound alone 100 mg/kg p.o.) | TAT-induction ± S.E.M. [2, 8] [O.D./mg protein] | TAT-induction ± S.E.M. ([2]; compound alone 100 mg/kg p.o.) | IC50 (recombinant human GR) [nM] | antagonism of the anti-inflammatory effect of prednisolone in the ear inflammation model ([1]; 100 mg/kg p.o.) | antagonism of the prednisolone-induced induction of tyrosine aminotransferase in liver ([2]; 100 mg/kg p.o., mice) | antagonistic activity on dexamethasone-induced TAT-induction ([3]; rat hepatoma cells pre-stimulated with dexamethasone 3e-9 mol/l) | agonistic activity in induction of tyrosine aminotransferase (TAT) ([3]; rat hepatoma cells, 18 hours) | systemic side-effect of the glucocorticoids (TAT in liver, blood glucose, free fatty acids level, renal function) ([4]; co-administration with dexamethasone or prednisolone) | anti-inflammatory activity of the glucocorticoid on co-administration ([4]; co-administration with dexamethasone or prednisolone in inflammation models) | agonistic activity in GR-mediated inhibition of LPS-induced IL-8 secretion ([5]; 18 hours) | antagonistic activity in GR-mediated inhibition of LPS-induced IL-8 secretion ([5]; IL-8 secretion inhibited with 3e-8 mol/l dexamethasone) | agonistic activity in inhibition of TNF-α induced activation of the ICAM-promoter ([6]; 24 hours) | antagonistic activity in inhibition of TNF-α induced activation of the ICAM-promoter ([6]; inhibited with 3e-8 mol/l dexamethasone) | antagonistic activity in stimulation of MMTV promoter ([7]; HeLa cells pre-stimulated with 3e-8 mol/l dexamethasone) | agonistic activity in stimulation of MMTV promoter ([7]; HeLa cells, 24 hours)
CC#C[C@]1(O)CC[C@H]2[C@@H]3CCC4=CC(=O)CCC4=C3[C@@H](c3ccc(N(C)C)cc3)C[C@@]21C [Mifepristone, 11-[4-Dimethylamino]phenyl-17-hydroxy-17[1-propynyl]estra-4,9-dien-3-one] | 1565 ± 435 | 931 ± 261 mO.D./min | 6.60 ± 0.38 | 4.62 ± 0.36 O.D./mg protein |  |  |  |  |  |  |  |  |  |  |  |  | 
C[C@]12C=CC(=O)C=C1CC[C@@H]1[C@@H]2[C@@H](O)C[C@@]2(C)[C@H]1CC[C@]2(O)C(=O)CO [Prednisolone] |  | 48 ± 13 mO.D./min and 34 ± 17 mO.D./min |  | 17.75 ± 0.86 O.D./mg protein and 13.45 ± 0.93 O.D./mg protein |  |  |  |  |  |  |  |  |  |  |  |  | 
COc1cc(C(=O)c2cccc(C)c2)c(Oc2c(Br)cc(CC(=O)O)cc2Br)cc1C(C)C [EXRS1370SE] | 140 ± 47 | 443 ± 90 mO.D./min | 12.00 ± 1.26 | 3.85 ± 0.43 O.D./mg protein | 69 | does not significantly antagonize | can antagonize significantly | shows antagonistic activity | does not show agonistic activity | no/reduced a systemic side-effect | retain the anti-inflammatory activity of the glucocorticoid | no agonistic | no antagonistic activity | no agonistic | no antagonistic activity | antagonistic activity | no agonistic
